Measurements as given in patent US20220117966A1, “METHOD OF TREATING FIBROSIS” (AstraZeneca AB, priority 2019, published 2022).
pIC50: −log10 of the molar value. Like-named read-outs stand apart in the source and are kept apart here.

Experiments:
[1] = cited from earlier work
[2] = system: TGFβ-stimulated NHLF (normal human lung fibroblasts); assay: cells; format: cell-based; settings: for pIC50: Homo sapiens, Fibroblast; for cell viability / cell death / inhibition of αSMA (FIG. 2): TGF-beta1-stimulated human lung fibroblasts
Description: Normal human lung fibroblasts from a healthy donor (passage 5) were seeded in 96-well culture plates with 50,000 cells per cm^2 in DMEM culture medium with 10% FBS and 1% penicillin-streptomycin. […]. The cells were incubated for one hour before 0.123 ng/ml TGF-beta1 was added on top of the compound/vehicle treatment and the cells were incubated for 24 hours.
After 24 hours the medium was collected and analysed for IL-6 and the cells were either lysed for RNA isolation, DNA-synthesis and TaqMan quantitative PCR or fixated and stained for alpha-smooth muscle actin (αSMA) and with Hoechst nuclear staining. The percentage of cells staining positive for αSMA and thereby displaying the myofibroblast phenotype was determined using high content image analysis. The Ct-values from the quantitative PCR were normalised against the geomean Ct values of two reference-genes and presented as fold-expression over those reference genes (2^-delta Ct).

[3] = system: Airway basal cells (ABC) from IPF patients; assay: Organoid formation assay; format: cell-based, human; settings: for organoid formation of airway basal cells (FIGS. 4, 5 and 6): saracatinib 8, 25, 75, 210 or 600 nM, pirfenidone 1 mM, nintedanib 1 μM
Description: Airway Basal Cells (ABCs) either derived from IPF patients or Healthy Volunteers (HV) were cultured in Matrigel® (Corning in a transwell system with or without lung fibroblasts either derived from patients with IPF or normal lung for up-to 35 days in the incubator (5% CO2, 37° C.)).

[4] = IPF patients; cited from earlier work
[5] = IPF patients, cited from earlier work
[6] = system: bleomycin (Bleo) induced lung injury and fibrosis; assay: Bleomycin model, lung hydroxyproline levels; format: in vivo, mice; settings: saracatinib 1, 3 or 10 mg/kg BID vs pirfenidone 200 mg/kg BID and nintedanib 30 mg/kg BID, from day 7, day 21
Description: Bleomycin Sulfate was obtained from Sigma-Aldrich. The IU conversion to enzyme units (U) is approximately 1.5-2 U/mg. For delivery of 4 U/kg in 50 μL, a solution of […] was prepared in 0.9% NaCl. Bleomycin or vehicle was dosed on Day 0 intranasally. […] Body weights and clinical observations were recorded on days 7, 14, and 21. On day 21, mice were euthanized by cervical dislocation. One side of lung tissue was dissected and analyzed for hydroxyproline levels as an indicator of local collagen deposition, and the other side lung was fixed in Formalin for histopathology (Quantitative staining with sirius red).

[7] = molecular target: Lyn (Homo sapiens, UniProt P07948); settings: cited from earlier work
[8] = system: human primary cell-based systems (BioMAP); assay: DiscoverX BioMAP Combo ELECT panel, relative protein expression; settings: saracatinib 3.3 μM, relative to vehicle control
From the text: BioMAP panels consist of human primary cell-based systems designed to model different aspects of the human body in an in vitro format. The 12 systems available in the Diversity PLUS panel allow test agent characterization in an unbiased way across a broad set of systems modelling various human disease states. BioMAP systems are constructed with one or more primary cell types from healthy human donors, with stimuli (such as cytokines or growth factors) added to capture relevant signalling networks that naturally occur in human tissue or pathological conditions. Systems recapitulate aspects of the systemic immune response including monocyte-driven Th1 inflammation (LPS system) or T cell stimulation (SAg system), chronic Th1 inflammation driven by macrophage activation (IMphg system) and the T cell-dependent activation of B cells that occurs in germinal centers (BT system). The BE3C system (Th1) and the BF4T system (Th2) represent airway inflammation of the lung, while the MyoF system models myofibroblast-lung tissue remodelling.
Each test agent generates a signature BioMAP profile that is created from the changes in protein biomarker readouts within individual system environments. Biomarker readouts (7-17 per system) are selected for therapeutic and biological relevance, are predictive for disease outcomes or specific drug effects and are validated using agents with known mechanism of action (MoA). Each readout is measured quantitatively by immune-based methods that detect protein (e.g., ELISA) or functional assays that measure proliferation and viability. BioMAP readouts are diverse and include cell surface receptors, cytokines, chemokines, matrix molecules and enzymes.
In the Combo ELECT panel, a 4×4 combination array is created to test all mixtures of two serially diluted single test agents/drugs.

[9] = Saracatinib AD Phase IIa (52 weeks), safety and tolerability; format: in vivo, human; settings: Alzheimer's Disease patients
[10] = Pharmacokinetics (PK) of saracatinib in the bleomycin model; format: in vivo; settings: mouse, mice; for Cmax: Day 21, dosed 1 hour prior to terminal blood draw; for concentration at 21 day: Day 21, not dosed before blood draw, read-out: Cmin +/− SD
[11] = 24 h, read-out: Mean IC50 ACTA2 mRNA
[12] = 24 h, read-out: Mean IC50 COL1A1 mRNA
[13] = 24 h, read-out: Mean IC50 COL3A1 mRNA
[14] = 24 h, read-out: Mean IC50 FN1 mRNA
[15] = 24 h, read-out: Mean IC50 IL-6 protein
[16] = 100 mg or 125 mg per day, 52 weeks, n = 79

Chain of Lyn (P07948 whole entry): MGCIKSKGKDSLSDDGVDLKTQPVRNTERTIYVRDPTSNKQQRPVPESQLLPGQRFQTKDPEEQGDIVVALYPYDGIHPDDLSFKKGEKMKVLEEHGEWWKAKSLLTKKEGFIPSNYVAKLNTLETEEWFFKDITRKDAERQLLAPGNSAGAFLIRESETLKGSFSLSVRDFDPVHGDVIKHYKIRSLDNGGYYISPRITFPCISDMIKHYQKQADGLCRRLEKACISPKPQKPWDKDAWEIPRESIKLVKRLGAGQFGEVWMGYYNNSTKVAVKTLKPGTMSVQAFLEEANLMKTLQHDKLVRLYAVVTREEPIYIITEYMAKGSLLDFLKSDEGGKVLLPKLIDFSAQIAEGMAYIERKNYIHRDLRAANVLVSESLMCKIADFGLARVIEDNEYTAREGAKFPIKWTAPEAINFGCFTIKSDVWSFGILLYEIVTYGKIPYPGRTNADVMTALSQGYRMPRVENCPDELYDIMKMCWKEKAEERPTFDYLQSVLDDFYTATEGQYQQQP

In the case of `COC(=O)c1ccc2c(c1)NC(=O)/C2=C(\Nc1ccc(N(C)C(=O)CN2CCN(C)CC2)cc1)c1ccccc1` [Nintedanib], the “Treatment Discontinuations, Real-World data” value [1] is given as 26.3%, the pIC50 [2, 11] is given as 5.76 and the pIC50 [2, 12] is given as 6.27. The pIC50 [2, 13] was 6.14, the pIC50 [2, 14] was 6.20 and the pIC50 [2, 15] was 6.51. For the same compound, the pIC50 ([2]; 24 h, read-out: Mean IC50 αSMA) was 6.22, the “cell viability / cell death” value [2] was “some evidence of cell death” and the “inhibition of αSMA (FIG. 2)” value [2] was “inhibited αSMA, but at supra-therapeutic concentrations”. The “organoid formation of airway basal cells (FIGS. 4, 5 and 6)” value (“organoid formation of airway basal cells” below) [3] was “little to no effect” and the “Treatment Discontinuations, clinical studies IPF” value [4] was 21% (15%).

For `Cc1ccc(=O)n(-c2ccccc2)c1` [Pirfenidone], the Anorexia ([5]; 52 weeks, n = 623) is given as 13%, the Diarrhea ([5]; 52 weeks, n = 623) is given as 24.6% and the Nausea ([5]; 52 weeks, n = 623) is given as 35.5%. For the same compound, the Vomiting ([5]; 52 weeks, n = 623) was 12.7%, the “Weight Decrease” value ([5]; 52 weeks, n = 623) was 10% and the “Decreased Appetite” value ([5]; Pirfenidone Medical Review, pirfenidone n = 345) was 9%^3. The “Treatment Discontinuations, clinical studies IPF” value [5] was 14.6% (9.6%), the “Treatment Discontinuations, Real-World data” value [1] was 20.9% and the pIC50 ([2]; TGFβ-stimulated NHLF, healthy donor 197 (n = 3), 24 hours, read-out: Mean IC50 ACTA2 mRNA) was less than 5.00. The pIC50 ([2]; TGFβ-stimulated NHLF, healthy donor 197 (n = 3), 24 hours, read-out: Mean IC50 COL1A1 mRNA) was less than 5.00, the pIC50 ([2]; TGFβ-stimulated NHLF, healthy donor 197 (n = 3), 24 hours, read-out: Mean IC50 COL3A1 mRNA) was less than 5.00 and the pIC50 ([2]; TGFβ-stimulated NHLF, healthy donor 197 (n = 3), 24 hours, read-out: Mean IC50 FN1 mRNA) was less than 5.00. For the same compound, the pIC50 ([2]; TGFβ-stimulated NHLF, healthy donor 197 (n = 3), 24 hours, read-out: Mean IC50 IL-6 protein) was less than 5.00, the pIC50 ([2]; TGFβ-stimulated NHLF, healthy donor 197 (n = 3), 24 hours, read-out: Mean IC50 αSMA) was less than 5.00 and the “cell viability / cell death” value [2] was “some evidence of cell death”. The “inhibition of αSMA (FIG. 2)” value [2] was “inhibited αSMA, but at supra-therapeutic concentrations” and the “organoid formation of airway basal cells” value [3] was “little to no effect”.

For `CN1CCN(CCOc2cc(OC3CCOCC3)c3c(Nc4c(Cl)ccc5c4OCO5)ncnc3c2)CC1` [Saracatinib, N-(5-chlorobenzo[d][1,3]dioxol-4-yl)-7-(2-(4-methylpiperazin-1-yl)ethoxy)-5-((tetrahydro-2H-pyran-4-yl)oxy)quinazolin-4-amine], the “hydroxyproline levels after bleomycin induced lung injury and fibrosis (FIG. 1)” value [6] is listed as “compares favourably to pirfenidone (at much lower doses) and is potentially superior to nintedanib at clinically relevant doses”, the pIC50 [7] is listed as 8.30 and the “expression of MMP-9 (FIG. 7)” value [8] is listed as “decreased expression”. The “expression of N-cadherin (FIG. 7)” value [8] was “decreased expression”, the “expression of TIMP-1 (FIG. 7)” value [8] was “decreased expression” and the “expression of VCAM-1 (FIG. 7)” value [8] was “increased expression”. For the same compound, the “expression of a-SMA (FIG. 7)” value [8] was “increased expression”, the “expression of sIL-6 (FIG. 7)” value [8] was “decreased expression” and the “expression of sIL-8 (FIG. 7)” value [8] was “decreased expression”. For the same compound, the “expression of sVEGF (FIG. 7)” value [8] was “decreased expression”, the “Treatment Discontinuations, clinical studies AD” value [9] was 8.2% (1.2%) and the Anorexia [9, 16] was 3%. The “Decreased Appetite” value [9, 16] was 9%, the Diarrhea [9, 16] was 27.8% and the Nausea [9, 16] was 12.7%. For the same compound, the Vomiting [9, 16] was 5.1%, the “Weight Decrease” value [9, 16] was 10% and the Cmax ([10]; 1 mg/kg BID oral gavage) was 71.5 nM. The concentration at 21 day ([10]; 1 mg/kg BID oral gavage) was 2.52 nM, the Cmax ([10]; 3 mg/kg BID oral gavage) was 139 nM and the concentration at 21 day ([10]; 3 mg/kg BID oral gavage) was 8.41 nM. The Cmax ([10]; 10 mg/kg BID oral gavage) was 390 nM, the concentration at 21 day ([10]; 10 mg/kg BID oral gavage) was 31.8 nM and the pIC50 [2, 11] was 6.73. The pIC50 [2, 12] was 6.00, the pIC50 [2, 13] was 5.10 and the pIC50 [2, 14] was 6.28. The pIC50 [2, 15] was 6.89, the pIC50 ([2]; 24 h, read-out: Mean IC50 αSMA) was 6.73 and the “cell viability / cell death” value [2] was “without impacting cell viability”. The “inhibition of αSMA (FIG. 2)” value [2] was “dose-dependent inhibition of αSMA”, the cytotoxicity ([3]; ABC organoids, saracatinib 8 to 600 nM) was “non-cytotoxic” and the “organoid formation of airway basal cells” value [3] was “differentiated and uniquely efficacious”.
